These are literature values, as cited in PubChem BioAssay AID1259409 (Chemical Carcinogenesis Research Information System (CCRIS), 2018).

SMILES strings stand for the structures.

This data set has as its system rodent chemically induced tumor inhibition, incidence and multiplicity. The data set is described as follows: CCRIS tumor inhibitor studies. The settings on record: for tumour outcome (control, treated, inhibition, significance): Route [Inhibitor]: ORAL; for outcome: Carcinogen: N,N-Diethylnitrosamine, Route [Inhibitor]: Intravenous, Species: Rat, Strain/Sex: Swiss-Albino/Male, Target Tissue: Type of Lesion: Liver: preneoplastic lesions, Promoter: None.

As to `O=c1c(O)c(-c2ccc(O)c(O)c2)oc2cc(O)cc(O)c12`, the “tumour outcome (control, treated, inhibition, significance)” value is, setting by setting: (Carcinogen: DIETHYLNITROSAMINE, 55-18-5, N-METHYLNITROSOUREA, 684-93-5, 1,2-DIMETHYLHYDRAZINE, 540-73-8, N-BUTYL-N-(4-HYDROXYB, Carcinogen: DIETHYLNITROSAMINE, 55-18-5, N-METHYLNITROSOUREA, 684-93-5, 1,2-DIMETHYLHYDRAZINE, 540-73-8, N-BUTYL-N-(4-HYDROXYB, Dose [Inhibitor]: 0, 1% IN DIET FOR 32 WK BEGINNING POST CARCINOGEN TREATMENT (STUDY DURATION: 36 WK), Species: RAT, Strain/Sex: F344/MALE, Target Tissue: Type of Lesion: SMALL INTESTINE: ADENOMA, Dose [Carcinogen]: 100 MG/KG DEN ONCE, 20 MG/KG MNU 4 TIMES, 40 MG/KG DMH 4 TIMES, 0.05% BBN IN DRINKING WATER FOR 2 WK, 0.1% DHPN IN D, Dose [Carcinogen]: 100 MG/KG DEN ONCE, 20 MG/KG MNU 4 TIMES, 40 MG/KG DMH 4 TIMES, 0.05% BBN IN DRINKING WATER FOR 2 WK, 0.1% DHPN IN D, Promoter: NONE USED) 6/14 (43%), 0/12 (0%), 100%, p<0.05; (Carcinogen: DIETHYLNITROSAMINE, 55-18-5, N-METHYLNITROSOUREA, 684-93-5, 1,2-DIMETHYLHYDRAZINE, 540-73-8, N-BUTYL-N-(4-HYDROXYB, Carcinogen: DIETHYLNITROSAMINE, 55-18-5, N-METHYLNITROSOUREA, 684-93-5, 1,2-DIMETHYLHYDRAZINE, 540-73-8, N-BUTYL-N-(4-HYDROXYB, Dose [Inhibitor]: 0, 1% IN DIET FOR 32 WK BEGINNING POST CARCINOGEN TREATMENT (STUDY DURATION: 36 WK), Species: RAT, Strain/Sex: F344/MALE, Target Tissue: Type of Lesion: SMALL INTESTINE: CARCINOMA, Dose [Carcinogen]: 100 MG/KG DEN ONCE, 20 MG/KG MNU 4 TIMES, 40 MG/KG DMH 4 TIMES, 0.05% BBN IN DRINKING WATER FOR 2 WK, 0.1% DHPN IN D, Dose [Carcinogen]: 100 MG/KG DEN ONCE, 20 MG/KG MNU 4 TIMES, 40 MG/KG DMH 4 TIMES, 0.05% BBN IN DRINKING WATER FOR 2 WK, 0.1% DHPN IN D, Promoter: NONE USED) 5/14 (36%), 0/12 (0%), 100%, p<0.05; (Carcinogen: DIETHYLNITROSAMINE, 55-18-5, N-METHYLNITROSOUREA, 684-93-5, 1,2-DIMETHYLHYDRAZINE, 540-73-8, N-BUTYL-N-(4-HYDROXYBU, Carcinogen: DIETHYLNITROSAMINE, 55-18-5, N-METHYLNITROSOUREA, 684-93-5, 1,2-DIMETHYLHYDRAZINE, 540-73-8, N-BUTYL-N-(4-HYDROXYBU, Dose [Inhibitor]: 0, 1% IN DIET FOR 32 WK BEGINNING POST CARCINOGEN TREATMENT (STUDY DURATION: 36 WK), Species: RAT, Strain/Sex: F344/MALE, Target Tissue: Type of Lesion: LARGE INTESTINE: ADENOMA, Dose [Carcinogen]: 100 MG/KG DEN ONCE, 20 MG/KG MNU 4 TIMES, 40 MG/KG DMH 4 TIMES, 0.05% BBN IN DRINKING WATER FOR 2 WK, 0.1% DHPN IN D, Dose [Carcinogen]: 100 MG/KG DEN ONCE, 20 MG/KG MNU 4 TIMES, 40 MG/KG DMH 4 TIMES, 0.05% BBN IN DRINKING WATER FOR 2 WK, 0.1% DHPN IN D, Promoter: NONE USED) 7/14 (50%), 3/12 (25%), 50%, not significant; (Carcinogen: DIETHYLNITROSAMINE, 55-18-5, N-METHYLNITROSOUREA, 684-93-5, 1,2-DIMETHYLHYDRAZINE, 540-73-8, N-BUTYL-N-(4-HYDROXYBU, Carcinogen: DIETHYLNITROSAMINE, 55-18-5, N-METHYLNITROSOUREA, 684-93-5, 1,2-DIMETHYLHYDRAZINE, 540-73-8, N-BUTYL-N-(4-HYDROXYBU, Dose [Inhibitor]: 0, 1% IN DIET FOR 32 WK BEGINNING POST CARCINOGEN TREATMENT (STUDY DURATION: 36 WK), Species: RAT, Strain/Sex: F344/MALE, Target Tissue: Type of Lesion: LUNG: ADENOMA, Dose [Carcinogen]: 100 MG/KG DEN ONCE, 20 MG/KG MNU 4 TIMES, 40 MG/KG DMH 4 TIMES, 0.05% BBN IN DRINKING WATER FOR 2 WK, 0.1% DHPN IN D, Dose [Carcinogen]: 100 MG/KG DEN ONCE, 20 MG/KG MNU 4 TIMES, 40 MG/KG DMH 4 TIMES, 0.05% BBN IN DRINKING WATER FOR 2 WK, 0.1% DHPN IN D, Promoter: NONE USED) 6/14 (43%), 3/12 (25%), 42%, not significant; (Carcinogen: N-BUTYL-N-(4-HYDROXYBUTYL)NITROSAMINE, 3817-11-6, Dose [Inhibitor]: 5% DIET DAILY FOR 34 WK STARTING AT COMPLETION OF CARCINOGEN TREATMENT (STUDY DURATION: 38 WK), Species: RAT, Strain/Sex: F344/MALE, Target Tissue: Type of Lesion: URINARY BLADDER: PAPILLOMA, Dose [Carcinogen]: 0.01% IN DRINKING WATER FOR 4 WK, Promoter: NONE USED) 33%, 17%, 48%, not significant; (Carcinogen: N-NITROSODIETHYLAMINE, 55-18-5, 2-ACETYLAMINOFLUORENE, 53-93-6, CARBON TETRACHLORIDE, 56-23-5, Carcinogen: N-NITROSODIETHYLAMINE, 55-18-5, 2-ACETYLAMINOFLUORENE, 53-93-6, CARBON TETRACHLORIDE, 56-23-5, Dose [Inhibitor]: 0, 1.5% IN DIET FOR 29 WK ADMINISTERED TO RATS BEARING PERSISTENT NODULES FOLLOWING CARCINOGEN TREATMENT (STUDY DURATION, Species: RAT, Strain/Sex: F344/MALE, Target Tissue: Type of Lesion: LIVER: HEPATOCELLULAR CARCINOMA, Dose [Carcinogen]: 200 MG/KG BW DEN ONCE, 0.002% 2-AAF IN DIET FOR 2 WK, 1 MG/KG BW CCL4 MIDWAY IN 2-AAF TREATMENT, Dose [Carcinogen]: 200 MG/KG BW DEN ONCE, 0.002% 2-AAF IN DIET FOR 2 WK, 1 MG/KG BW CCL4 MIDWAY IN 2-AAF TREATMENT, Promoter: NONE USED) 7/8 (88%), 7/11 (64%), 27%, not significant. Besides, the “tumour outcome (control, treated, inhibition, significance)” value was 12/12 (100%), 13/14 (93%), 7%, not significant (Carcinogen: N-NITROSODIETHYLAMINE, 55-18-5, 2-ACETYLAMINOFLUORENE, 53-93-6, CARBON TETRACHLORIDE, 56-23-5, Carcinogen: N-NITROSODIETHYLAMINE, 55-18-5, 2-ACETYLAMINOFLUORENE, 53-93-6, CARBON TETRACHLORIDE, 56-23-5, Dose [Inhibitor]: 0, 1.5% IN DIET FOR 29 WK ADMINISTERED TO RATS BEARING PERSISTENT NODULES FOLLOWING CARCINOGEN TREATMENT (STUDY DURATION, Species: RAT, Strain/Sex: F344/MALE, Target Tissue: Type of Lesion: LIVER: HEPATOCELLULAR CARCINOMA, Dose [Carcinogen]: 200 MG/KG BW DEN ONCE, 0.002% 2-AAF IN DIET FOR 2 WK, 1 ML/KG BW CCL4 MIDWAY IN 2-AAF TREATMENT, Dose [Carcinogen]: 200 MG/KG BW DEN ONCE, 0.002% 2-AAF IN DIET FOR 2 WK, 1 ML/KG BW CCL4 MIDWAY IN 2-AAF TREATMENT, Promoter: PHENOBARBITAL, 50-06-6); 78%, 70%, 10%, not calculated (Carcinogen: N-NITROSOMETHYLUREA, 684-93-5, Dose [Inhibitor]: 5.0% IN DIET BEGINNING 1 WK PRIOR TO CARCINOGEN DOSE AND CONTINUING FOR DURATION OF STUDY (STUDY DURATION: 21 WK), Species: RAT, Strain/Sex: SPRAGUE-DAWLEY/FEMALE, Target Tissue: Type of Lesion: MAMMARY GLAND: TUMOR, Dose [Carcinogen]: 50 MG/KG BW IN 0.9% SALINE AND 5% ACETIC ACID STABILIZER ONCE, Promoter: NONE USED); 43/118 (36%), 30/115 (26%), 27%, not significant (Dose [Inhibitor]: 0, 2000 PPM IN DIET BEGINNING 8 WK PRIOR TO CARCINOGEN AND CONTINUING FOR 6 WK POST CARCINOGEN (STUDY DURATION: 68 WK), Species: FISH, Strain/Sex: RAINBOW TROUT, Target Tissue: Type of Lesion: LIVER: HEPATOCELLULAR CARCINOMA, Dose [Carcinogen]: 20 PPB IN DIET FOR 2 WK, Promoter: NONE USED). The outcome is recorded as 1205+/-102, 1111+/-56, not significant (55-18-5, Dose [Inhibitor]: 0.5 ml suspension of 0.2% tween 80 aqueous soln with 0.898 mM quercetin once a wk for 16 wk, Dose [Carcinogen]: 200 mg/kg bw in 0.5 ml olive oil three times at 15 day intervals beginning on wk 1); 1205+/-102, 361+/-22, significant (55-18-5, Dose [Inhibitor]: 0.5 ml suspension of galactosylated liposomal quercitin, 0.898 mM, once a wk for 16 wk, study duration 18 wk, Dose [Carcinogen]: 200 mg/kg bw in 0.5 ml olive oil three times at end of 1st, 3rd and 5th wk, study duration 18 wk); 1205+/-102, 861+/-81, significant (55-18-5, Dose [Inhibitor]: 0.5 ml suspension of liposomal quercitin, 0.898 mM, once a wk for 16 wk, study duration 18 wk, Dose [Carcinogen]: 200 mg/kg bw in 0.5 ml olive oil three times at end of 1st, 3rd and 5th wk, study duration 18 wk).
